These results are taken from patent US12611425B2, “Compositions and methods for treatment and prevention of pathogens” (WIAB WATER INNOVATION AB, priority 2022, dated 2026).

Like-named read-outs stand apart in the source and are kept apart here. Where only a bound is given, the exact number is not on record here.

The subject of series [1] is S. aureus biofilms. The series can be described thus: In vitro anti-biofilm effect, viable CFU counting. The format is cell-based, Staphylococcus aureus. To be noted: 1% glutaric acid alone. The protocol: Test organisms: Pseudomonas aeruginosa or Staphylococcus aureus wild-type strains Biofilm type: 48 hours- or 24 hours-old biofilms grown on semipermeable membranes placed on solidified medium supplemented with 0.5% glucose. In the case of 48 h-old biofilms, the membranes with biofilms were transferred onto fresh plates after 24 h.
Initial viable cell amount: 5×10^9 colony forming units (CFUs)
Treatment method: Membranes with biofilms were transferred to new plates. Eight-10 layers of sterile gauze were placed on the second membrane, and 1 ml of antimicrobial solution was pipetted on the gauze layers. The treatment was carried out at room temperature for 2-to-3 h, or 4-to-6 h. In the case of the 4-to-6 h treatments, the gauze layers were replaced with fresh gauze layers with 1 ml sample solution 2 or 3 h after the treatments had been initiated.
Evaluation method: The gauze layers were discarded, and each membrane with biofilms was transferred into a 15 ml tube containing 5 ml 0.9% NaCl, vortexed for 10 sec., sonicated in an ultrasound bath for 10 min, and vortexed again for 10 sec. Ten-fold serial dilutions were made, and 10 ul of each dilution was spot-plated on LB plates for viable CFU counting.

Series [2] relates to human rhinovirus (HRV). To be noted: low concentration nasal irrigation solution, in vitro, nasal epithelial cells; cited from earlier work.
For series [3] the following is noted: cited from earlier work.
The subject of series [4] is avian influenza virus. To be noted: similar formulations, in vitro; cited from earlier work.
For series [5] the following is noted: cited from earlier work. This is another data set of the same source.
Series [6] deals with bacterial log CFU/g ground chicken ground meat. To be noted: separately or in a mixture; cited from earlier work.
Series [7] in a line: Powder flow determination (funnel flow, angle of repose). The format is physicochemical. To be noted: for flowability: 100 g, funnel outflow opening 15 mm. The protocol: 100 g of powdered calcium hypochlorite of sizes ≤355 μm and ≤500 μm was added, respectively, into a dry funnel (Ø110 mm, diameter of the outflow opening=15 mm), whose bottom opening has been blocked by a plastic cover. The bottom opening of the funnel was unblocked to measure the time needed for the entire sample to flow out. The flowability of particle sizes ≤355 μm and ≤500 μm is, respectively, 35.7 g/s and 37.4 g/s. The angle of repose was calculated as 29.5° and 26.8° for particle sizes 355 μm and ≤500 μm, respectively.

Series [8] in a line: Dissolving time of powdered calcium hypochlorite in acetic acid/acetate buffer. To be noted: 2500 rpm. The format is physicochemical. The protocol:
• I. 58±4 mg of all sizes of the powdered material was, respectively, dissolved in 100 mL 0.25% wt. acetic acid/acetate buffer. Particle size ≤250 μm dissolved within 10 seconds, ≤355 μm within 15 seconds and ≤500 μm within one minute and 25 seconds at 2500 rpm. • II. 58±4 mg of all sizes of the powdered material was, respectively, dissolved in 100 mL 3.0% wt. acetic acid/acetate buffer. Particle size ≤250 μm dissolved within 10 seconds, ≤355 μm within 25 seconds and ≤500 μm within 25 seconds at 2500 rpm. • III. 570±40 mg of all sizes of the powdered material was, respectively, dissolved in 100 mL 0.25% wt. acetic acid/acetate buffer. Particle size ≤250 μm dissolved within 15 seconds, ≤355 μm within 45 seconds and ≤500 μm within one minute and 35 seconds at 2500 rpm. • IV. 570±40 mg of all sizes of the powdered material was, respectively, dissolved in 100 mL 3.0% wt. acetic acid/acetate buffer. Repeated with 3.0% acetic acid/acetate buffer. Particle size ≤250 μm dissolved within 15 seconds, ≤355 μm within 15 seconds and ≤500 μm within 20 seconds at 2500 rpm.

As for `O=C(O)CCCC(=O)O` [glutaric acid], the “effect on the biofilm” value in series [1] is recorded as “only minor effect”.

Regarding `OCl` [hypochlorous acid], the virus-killing effect entry in series [2] is on record as “significant virus-killing effect”. The standard reduction potential result in series [3] (basic pH) is listed as “+0.89”; in series [3] (low pH) it was “+1.49”. Moreover, in series [4], the “effects against avian influenza virus” value was “good effects”. Also, the pKa entry in series [5] was “about 7”.

Take `O=C([O-])CCC(=O)O.[Na+]` [monosodium succinate]: in series [6], the “reduction of bacterial log CFU/g” value is given as roughly 2 log.

On to `[Ca+2].[O-]Cl.[O-]Cl` [powdered calcium hypochlorite, calcium hypochlorite], for which the angle of repose was found to be 29.5 ° in series [7] (particle size 355 μm) and 26.8 ° in series [7] (particle size ≤500 μm). Also, the flowability came out at 35.7 g/s in series [7] (particle size ≤355 μm) and 37.4 g/s in series [7] (particle size ≤500 μm). Besides, the dissolving time is no more than 10 s in series [8] (I: 58±4 mg in 100 mL 0.25% wt. acetic acid/acetate buffer, particle size ≤250 μm); no more than 15 s in series [8] (I: 58±4 mg in 100 mL 0.25% wt. buffer, particle size ≤355 μm); no more than 10 s in series [8] (II: 58±4 mg in 100 mL 3.0% wt. acetic acid/acetate buffer, particle size ≤250 μm); no more than 25 s in series [8] (II: 58±4 mg in 100 mL 3.0% wt. buffer, particle size ≤355 μm); no more than 25 s in series [8] (II: 58±4 mg in 100 mL 3.0% wt. buffer, particle size ≤500 μm); no more than 15 s in series [8] (III: 570±40 mg in 100 mL 0.25% wt. acetic acid/acetate buffer, particle size ≤250 μm). The dissolving time in series [8] (III: 570±40 mg in 100 mL 0.25% wt. buffer, particle size ≤355 μm) is no more than 45 s; in series [8] (IV: 570±40 mg in 100 mL 3.0% wt. acetic acid/acetate buffer, particle size ≤250 μm) it was no more than 15 s; in series [8] (IV: 570±40 mg in 100 mL 3.0% wt. buffer, particle size ≤355 μm) it was no more than 15 s; in series [8] (IV: 570±40 mg in 100 mL 3.0% wt. buffer, particle size ≤500 μm), no more than 20 s.

As to `CC(=O)C(=O)O` [pyruvic acid], in series [6], the “reduction of bacterial log CFU/g” value was roughly 2 log.
